Test results reported in US10350199B2, “3-(1h-pyrrolo[2,3-b]pyridin-2-yl)-1h-indazoles and therapeutic uses thereof” (Samumed, LLC, priority 2015, dated 2019).

Assays:
Assay type in all cases: cell-based
[1] = system: Wnt activity (Sp5-Luc reporter, SW480 colon carcinoma cells); assay: Wnt activity screening assay, Sp5-Luc reporter gene in SW480 cells; conditions: Homo sapiens; for EC50: Sp5-Luc reporter, SW480 cells, overnight incubation; for inhibition at 10 µM: SW480, read-out: percent inhibition at 10 μM
In short: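 SW480 cells stably transduced with lentiviral Sp5 promoter (eight TCF/LEF sites)-firefly luciferase, plated at 4,000 cells/well in 1% FBS medium and incubated overnight at 37° C. Luminescence read after BrightGlo addition, normalized to DMSO-only cells; EC50 from four-parameter variable-slope nonlinear regression.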

[2] = system: primary human fibroblasts derived from IPF patients (LL29 cells) treated with TGF-β1; assay: Inhibition of the fibrotic process: αSMA staining in TGF-β1 treated LL29 fibroblasts; conditions: Fibroblast; for EC50: 96 h, LL29 cells, TGF-β1 20 ng/mL, 4 days, % αSMA positive cells; for inhibition at 10 µM: read-out: percent inhibition at 10 μM
In short: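 IPF-patient-derived LL29 lung fibroblasts in F12 with 1% FBS, stimulated with TGF-β1 alongside compound; TGF-β1 plus DMSO wells served as controls. After 4 days, nuclei stained with 1 μM SYTOX green for 30 min at room temperature, alongside αSMA staining.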

[3] = system: IL-6 (THP-1 human monocyte cell line); assay: IL-6 inhibition in LPS-stimulated THP-1 cells (HTRF); conditions: for EC50: IL-6 inhibition, LPS-stimulated THP-1 cells, HTRF; for inhibition at 10 µM: THP-1, read-out: percentage in parentheses beside EC50 >10 (IL-6 inhibition)
In short: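 THP-1 cells kept 24 h in 1% FBS medium, treated 2 h at 37 °C, then stimulated with 500 ng/mL LPS for another 22 h. IL-6 measured by HTRF as the 665/620 nm ratio; EC50 from a four-parameter fit normalized to DMSO controls.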

SW480 colon cancer cells = assay: Cell viability assay (CellTiter-Blue), SW480 cells, four days; conditions: Homo sapiens; for EC50: 96 h, SW480 cell viability, four days, CellTiter-Blue; for inhibition at 10 µM: SW480, read-out: percent inhibition at 10 μM
In short: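 Fluorescence from resazurin reduced to resorufin by metabolically active cells was the read-out, taken after ~3 h with CellTiter-Blue.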

[4] = system: primary human mesenchymal stem cells (hMSCs); assay: Induction of chondrogenesis in human mesenchymal stem cells (nodule area, Rhodamine B/Nile Red); conditions: hMSC chondrogenesis; for EC50: concentration required to induce 50% levels of chondrogenesis of TGF-β3 positive control, read-out: Conc (nM) of 50% TGF-β3 activity; for Emax: relative to TGF-β3 (10 ng/mL) positive control, read-out: Max. Activity as % TGF-β3 activity
Source text: Representative compounds were screened using primary human mesenchymal stem cells (hMSCs) to determine their ability to induce chondrogenesis (process by which cartilage is developed).
Primary human mesenchymal stem cells (hMSCs) were purchased from Lonza (Walkersville, Md.) and expanded in Mesenchymal Stem Cell Growth Media (Lonza). Cells between passage 3 and 6 were used for the experiments.
Area of nodules in each well was normalized to the average of 3 DMSO treated wells on the same plate using Excel (Microsoft Inc.). The normalized averages (fold change over DMSO) of 2 or 3 replicate wells for each compound concentration were calculated. Due to solubility limitations of some of the compounds, curve fitting was incomplete leading to inaccurate EC50 determinations.
Using TGF-β3 as a positive control, the concentration of representative compounds required to induce 50% levels of chondrogenesis is reported. In addition, the maximum activity of each compound and the respective dose that each compound reached maximum chondrogenesis activity is reported.

Row | SMILES | EC50 [1] | EC50 [2] | EC50 [3] | EC50 (SW480 colon cancer cells) | EC50 [4] | Emax [4] | inhibition at 10 µM [3] | inhibition at 10 µM [1] | inhibition at 10 µM [2] | inhibition at 10 µM (SW480 colon cancer cells)
1 | CCC(=O)Nc1cncc(-c2ccc3[nH]nc(-c4cc5c(-c6cccc(F)c6)ccnc5[nH]4)c3c2)c1 [Compound 1, N-(5-(3-(4-(3-Fluorophenyl)-1H-pyrrolo[2,3-b]pyridin-2-yl)-1H-indazol-5-yl)pyridin-3-yl)propionamide] | 13 nM | 141 nM | 6140 nM | 1030 nM | 100 nM | 167% |  |  |  | 
2 | CCNCc1cncc(-c2ccc3[nH]nc(-c4cc5c(-c6cccc(F)c6)ccnc5[nH]4)c3c2)c1 [Compound 6, N-((5-(3-(4-(3-Fluorophenyl)-1H-pyrrolo[2,3-b]pyridin-2-yl)-1H-indazol-5-yl)pyridin-3-yl)methyl)ethanamine] | 1680 nM | 1200 nM | 3970 nM | 561 nM | 30 nM | 59% |  |  |  | 
3 | CN(C)Cc1cncc(-c2ccc3[nH]nc(-c4cc5c(-c6cccc(F)c6)ccnc5[nH]4)c3c2)c1 [Compound 13, 1-(5-(3-(4-(3-Fluorophenyl)-1H-pyrrolo[2,3-b]pyridin-2-yl)-1H-indazol-5-yl)pyridin-3-yl)-N,N-dimethylmethanamine] | 1180 nM | 1190 nM | > 10000 nM | 2920 nM |  | 48% | 55.3% |  |  | 
4 | Fc1ccc(-c2ccnc3[nH]c(-c4n[nH]c5ccc(-c6cncc(CN7CCCC7)c6)cc45)cc23)cc1 [Compound 42, 3-(4-(4-Fluorophenyl)-1H-pyrrolo[2,3-b]pyridin-2-yl)-5-(5-(pyrrolidin-1-ylmethyl)pyridin-3-yl)-1H-indazole] | > 10000 nM | 2930 nM | > 10000 nM | 1510 nM |  | 22% | 40.2% | 14.8% |  | 
5 | Fc1ccc(-c2ccnc3[nH]c(-c4n[nH]c5ccc(-c6cncnc6)cc45)cc23)cc1 [Compound 55, 3-(4-(4-Fluorophenyl)-1H-pyrrolo[2,3-b]pyridin-2-yl)-5-(pyrimidin-5-yl)-1H-indazole] | > 10000 nM | > 10000 nM | > 10000 nM | > 10000 nM | 2700 nM | 82% | 25.6% | 11.7% | 7.3% | 17.3%
6 | Nc1cncc(-c2ccc3[nH]nc(-c4cc5c(-c6ccccc6F)ccnc5[nH]4)c3c2)c1 [Compound 59, 5-(3-(4-(2-Fluorophenyl)-1H-pyrrolo[2,3-b]pyridin-2-yl)-1H-indazol-5-yl) pyridin-3-amine] | 131 nM | 592 nM | > 10000 nM | 399 nM |  | 24% | 31.6% |  |  | 
7 | Cc1ccncc1-c1ccc2[nH]nc(-c3cc4c(-c5ccccc5F)ccnc4[nH]3)c2c1 [Compound 61, 3-(4-(2-Fluorophenyl)-1H-pyrrolo[2,3-b]pyridin-2-yl)-5-(4-methylpyridin-3-yl)-1H-indazole] | > 10000 nM | 450 nM | > 10000 nM | > 10000 nM | 30 nM | 54% | 22.7% | 3.5% |  | 14.9%
8 | c1cc(-c2ccnc3[nH]c(-c4n[nH]c5ccc(-c6cn[nH]c6)cc45)cc23)ccn1 [Compound 571, 5-(1H-Pyrazol-4-yl)-3-(4-(pyridin-4-yl)-1H-pyrrolo[2,3-b]pyridin-2-yl)-1H-indazole] | > 10000 nM | > 10000 nM | > 10000 nM | > 10000 nM |  |  | 37% | 37% | 28.3% | 23.8%
9 | Cc1ncc(-c2ccc3[nH]nc(-c4cc5c(-c6ccncc6)ccnc5[nH]4)c3c2)n1C [Compound 573, 5-(1,2-Dimethyl-1H-imidazol-5-yl)-3-(4-(pyridin-4-yl)-1H-pyrrolo[2,3-b]pyridin-2-yl)-1H-indazole] | > 10000 nM | > 10000 nM | > 10000 nM | 1150 nM |  |  | 26.4% | 8% | 113% | 
10 | c1cc(N2CCCCC2)c2cc(-c3n[nH]c4ccc(-c5cn[nH]c5)cc34)[nH]c2n1 [Compound 603, 3-(4-(Piperidin-1-yl)-1H-pyrrolo[2,3-b]pyridin-2-yl)-5-(1H-pyrazol-4-yl)-1H-indazole] | 181 nM | 304 nM | 663 nM | 296 nM |  |  |  |  |  | 
11 | NC1CN(c2cncc(-c3ccc4[nH]nc(-c5cc6c(N7CCCCC7)ccnc6[nH]5)c4c3)n2)C1 [Compound 606, 1-(6-(3-(4-(Piperidin-1-yl)-1H-pyrrolo[2,3-b]pyridin-2-yl)-1H-indazol-5-yl)pyrazin-2-yl)azetidin-3-amine] | > 10000 nM | 3620 nM | > 10000 nM | > 10000 nM |  |  | 39.1% | 20.2% |  | 10.2%
12 | c1cc(N2CCCCC2)c2cc(-c3n[nH]c4ccc(-c5cncc(OC6CCCCC6)c5)cc34)[nH]c2n1 [Compound 607, 5-(5-(Cyclohexyloxy)pyridin-3-yl)-3-(4-(piperidin-1-yl)-1H-pyrrolo[2,3-b]pyridin-2-yl)-1H-indazole] | > 10000 nM | 7100 nM | > 10000 nM | 8580 nM |  |  | 20% | 28.4% |  | 
13 | CN1CCN(c2ccnc3[nH]c(-c4n[nH]c5ccc(-c6cncc(OCc7ccccc7)c6)cc45)cc23)CC1 [Compound 646, 5-(5-(Benzyloxy)pyridin-3-yl)-3-(4-(4-methylpiperazin-1-yl)-1H-pyrrolo[2,3-b]pyridin-2-yl)-1H-indazole] | 4880 nM | 316 nM | > 10000 nM | 4820 nM |  |  | 37.9% |  |  | 
14 | COc1cncc(-c2ccc3[nH]nc(-c4cc5c(-c6ccsc6)ccnc5[nH]4)c3c2)c1 [Compound 676, 5-(5-Methoxypyridin-3-yl)-3-(4-(thiophen-3-yl)-1H-pyrrolo[2,3-b]pyridin-2-yl)-1H-indazole] | > 10000 nM | 7780 nM | > 10000 nM | > 10000 nM |  |  | 38.4% | 21% |  | 0%
15 | c1cnc(-c2ccc3[nH]nc(-c4cc5c(-c6ccoc6)ccnc5[nH]4)c3c2)cn1 [Compound 696, 3-(4-(Furan-3-yl)-1H-pyrrolo[2,3-b]pyridin-2-yl)-5-(pyrazin-2-yl)-1H-indazole] | 4150 nM | 2480 nM | > 10000 nM | 3990 nM |  |  | 43.3% |  |  | 
16 | c1csc(-c2ccnc3[nH]c(-c4n[nH]c5ccc(-c6cnccn6)cc45)cc23)c1 [Compound 712, 5-(Pyrazin-2-yl)-3-(4-(thiophen-2-yl)-1H-pyrrolo[2,3-b]pyridin-2-yl)-1H-indazole] | > 10000 nM | 1400 nM | > 10000 nM | > 10000 nM |  |  | 36.3% | 5.6% |  | 13.9%
